pKd: −log10 of the molar value. Marks after values point to notes of the source that are not given here. Where a SMILES comes first, the peptide text is derived from it.
What was measured:
FA assay with Neu5Ac = format: binding; conditions: absence of PSA; Neu5Ac up to 150 mM; PBS pH 7.4
Procedure: a Neu5Ac concentration (µM) b Neu5Ac concentration (µM) c CS-A concentration (µM)
Supplementary Figure S4. (a–b) Interaction of I-P24 and I-P264 with Neu5Ac as asses sed by fluorescence anisotropy (FA) titrations in the (a) absence or (b ) presence of 500 µM P S A.
For a given volume, the highest concentration tested (150 mM) is approximately mass […]
equivalent to 1.5 mM PSA. […]
except for a small decrease in anisotropy at the highest concentrations of Neu 5Ac, indicating specific peptide binding to PSA. Error bars represent standard deviations from two independent experiments (0.15–15000 µM), with triplicate intra-as say measurements (0.15–150000 µM) .
(c) FA assay for binding of I-P24 and I-P264 to chondroitin sulphate A (CS-A). […] Anisotropies were determined from triplicate measurements (error bars excluded for clarity). […]
Asse ssment of selective binding of peptides with the FA assay is only presented in the context of alternative glycans as proof-of-principle above. However, given the comparatively lower sensitivity of microarray screening, FA may be employed for quantifying affinity in various buffers to asses s the effects of various ions, if any, on PSA binding. […]
(also on this page, place not known: Assessment assess assessed (b) Neu5Ac, PSA. intra-assay µM). assessment experiments, 5Ac (µM)a cNeu5Ac Anisotropy (mA) Anisotropy (mA) Anisotropy (mA)) […]

[1] = Fluorescence anisotropy (FA) assay of peptide–PSA binding; parameters: species or system Escherichia coli
Procedure: Peptides (Table 2) were synthesized at >95% purity (confirmed with HPLC) by Biomatik (see Supplementary Information). All peptides were N-terminally acetylated and C-terminally labelled with tetramethylrhodamine dye (TAMRA). TAMRA was chosen as a label due to its pH insensitivity compared to FAM (fluorescein) and related dyes commonly used for fluorescence assays. Experiments were conducted in black 384-well plates with non-binding surface (NBS, Corning, Inc.) to minimize background binding and enhance signal-to-noise ratio in the fluorescence-based binding assay. Titrations were carried out through addition of TAMRA-labelled peptide (8 μL, final concentration 20 nM) to CA (72 μL, final concentrations 0–1500 μM) in PBS, pH 7.4 (10 mM phosphate, 100 mM NaCl), and solutions were incubated with agitation to equilibrium at room temperature (3 h, ~20 °C). Parallel and perpendicular intensities were subsequently measured at 530 nm excitation (band width 5 nm) and 580 nm emission (band width 20 nm) in fluorescence polarization mode with a Tecan Infinite M1000 Pro plate reader. Total fluorescence intensities were also measured as a control for fluorophore properties with target binding; fluorescence intensities of free peptide were determined to be approximately equivalent to intensities with peptide–CA mixtures. At higher concentrations of free CA (control with no peptide addition), attenuation of detected light differed in parallel and perpendicular planes, so respective intensities were subtracted from peptide–CA intensities prior to anisotropy calculations. […] Unique samples were screened in at least triplicate within each titration experiment, and each peptide titration was carried out at least twice. In experimental repeats, peptide locations on plates were varied to prevent location-specific effects, if any, and different combinations of peptides were assessed at once. Anisotropies were calculated from corrected parallel and perpendicular intensities, and values were fit to the four-parameter logistic binding model[70] in MATLAB. Prior to curve fitting, anisotropy values for each peptide were transformed through subtraction of minimum values to enhance comparison between peptides. The resulting translations in binding curves were identical, within error, to change in anisotropy curves obtained through subtraction of anisotropy of free labelled peptide. Bmax and KD values obtained were used in the calculation of Bmax/KD ratios for comparison to microarray intensity values, and the Pearson correlation coefficient (r) was determined.

[2] = Competitive microarray selectivity screening with α-2,8/9-PSA; format: binding, Escherichia coli; conditions: 10% competing α-2,8/9-PSA
Procedure: Competitive microarray screening with α-2,8/9-PSA was conducted in order to assess selective binding of peptides to α-2,8-PSA. The definition of percent selectivity at 10% competing glycan was applied to enable selectivity comparisons amongst a larger set of peptides[25] […] However, the use of an isomeric polymer is a more stringent assessment of selectivity; here, selective binding is guided by three-dimensional conformation and not additionally by differences in functional groups.
Peptide library synthesis, microarray preparation, and microarray screening were performed as described previously[25] with the following specifications. Siglec-related sequences were N-terminally acetylated to match the charge of the corresponding protein fragment. All peptides were printed in triplicate (60 nL spots), and each initial affinity screening was carried out at least three times. Screening was conducted with 10 μM colominic acid (CA; 5 mL per microarray), the Escherichia coli homolog of α-2,8-PSA identical in structure to human-derived PSA[67], and with antibody-based chemiluminescent detection of CA. For selectivity screening, microarrays were challenged with 10 μM CA with 0, 0.1, 1, and 10 μM α-2,8/9-PSA in separate conditions (5 mL total volume each), where molar concentrations were based on molecular weight estimation of synthesized 2,8/9-PSA (details on α-2,8/9-PSA production, purification, and analysis are provided in Supplementary Information). Selectivity screening with monomeric sialic acid was conducted with mass and molar equivalents of N-acetylneuraminic acid (Rose Scientific, Ltd.) along with 10 μM CA (5 mL total volume each). The mass equivalent amount of sialic acid (specifically, 970 μM sialic acid for a given volume of 10 μM CA) was calculated for CA of an average degree of polymerization of 100. For study of pH-dependent binding, affinity screening with CA was performed using PBS buffers of pH 6.0, 7.0, 7.4, and 8.0 (10 mM phosphate, 100 mM NaCl). The impact of NaCl on peptide binding was assessed at pH 7.4 with 0, 100, and 200 mM NaCl. […]

In the case of CC(=O)N[C@@H](Cc1ccccc1)C(=O)N[C@@H](CCCCN)C(=O)NCC(=O)N[C@@H](CCCNC(=N)N)C(=O)N[C@H](C(=O)N[C@@H](CO)C(=O)N1CCC[C@H]1C(=O)N[C@@H](CCCCN)C(=O)N[C@H](C(=O)NCC(=O)N[C@@H](C)C(=O)N1CCC[C@H]1C(=O)N[C@H](C(=O)N[C@@H](C)C(=O)N[C@H](C(N)=O)[C@@H](C)O)C(C)C)[C@@H](C)O)[C@@H](C)O [I-P24] (Ac-FKGRTSPKTGAPVAT-NH2), the “binding to Neu5Ac by FA titration” value (FA assay with Neu5Ac) was “minimal”, the “binding to PSA in competitive FA assay with Neu5Ac” value ([1]; 500 µM PSA (CA), Neu5Ac 0–150 mM, PBS pH 7.4) was “largely maintained” and the pKd ([1]; FA titration, N-acetylated, C-terminally TAMRA-labelled peptide 20 nM, CA 0–1500 μM, PBS pH 7.4 (10 mM phosphate, 100 mM NaCl), 3 h, ~20 °C, four-parameter logistic fit, at least two independent experiments, at least triplicate, * = accuracy likely poor (SE > KD)) was 3.28. For the same molecule, the “Bmax/KD ratio (binding potential)” value ([1]; from FA curve fits, among the peptides characterised with FA) was “highest” and the “selectivity mark in Table 1” value [2] was “I-P24* (Peptides with selectivity >80%)”.
